From US7135466B2 (Kirin Beer Kabushiki Kaisha, priority 1999, dated 2006)
Read-outs that look alike come from different tables or passages of the source.

Molecular target: T1, PDGF-Ra (Homo sapiens, UniProt P16234)
T1 construct: host or cells: G-292 human osteosarcoma cells
Assay: Inhibitory activity against PDGF-Ra phosphorylation by PDGF-AA stimulation using G292
Format: cell-based
Conditions: for IC50: > means inhibition at indicated concentration not more than 50%, < and << not less than 50%, read-out: PDGF (E) IC50; for inhibition at 0.1 µM: G292, at 100 nM, read-out: PDGF (E) inhibition (%) at 100 nM
Outline: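 Phosphorylated PDGF-Ra was measured colorimetrically (450 nm) after tyrosine-phosphorylated proteins from G-292 lysates were bound to PY-20-coated wells and detected with anti-PDGF-Ra antibody. Compound preincubation lasted 1 hr, followed by 50 ng/ml PDGF-AA for 5 min.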

[1] = figure within parentheses in >100( )
[2] = figure in parentheses in >100( )

T1 sequence (P16234 24-1089): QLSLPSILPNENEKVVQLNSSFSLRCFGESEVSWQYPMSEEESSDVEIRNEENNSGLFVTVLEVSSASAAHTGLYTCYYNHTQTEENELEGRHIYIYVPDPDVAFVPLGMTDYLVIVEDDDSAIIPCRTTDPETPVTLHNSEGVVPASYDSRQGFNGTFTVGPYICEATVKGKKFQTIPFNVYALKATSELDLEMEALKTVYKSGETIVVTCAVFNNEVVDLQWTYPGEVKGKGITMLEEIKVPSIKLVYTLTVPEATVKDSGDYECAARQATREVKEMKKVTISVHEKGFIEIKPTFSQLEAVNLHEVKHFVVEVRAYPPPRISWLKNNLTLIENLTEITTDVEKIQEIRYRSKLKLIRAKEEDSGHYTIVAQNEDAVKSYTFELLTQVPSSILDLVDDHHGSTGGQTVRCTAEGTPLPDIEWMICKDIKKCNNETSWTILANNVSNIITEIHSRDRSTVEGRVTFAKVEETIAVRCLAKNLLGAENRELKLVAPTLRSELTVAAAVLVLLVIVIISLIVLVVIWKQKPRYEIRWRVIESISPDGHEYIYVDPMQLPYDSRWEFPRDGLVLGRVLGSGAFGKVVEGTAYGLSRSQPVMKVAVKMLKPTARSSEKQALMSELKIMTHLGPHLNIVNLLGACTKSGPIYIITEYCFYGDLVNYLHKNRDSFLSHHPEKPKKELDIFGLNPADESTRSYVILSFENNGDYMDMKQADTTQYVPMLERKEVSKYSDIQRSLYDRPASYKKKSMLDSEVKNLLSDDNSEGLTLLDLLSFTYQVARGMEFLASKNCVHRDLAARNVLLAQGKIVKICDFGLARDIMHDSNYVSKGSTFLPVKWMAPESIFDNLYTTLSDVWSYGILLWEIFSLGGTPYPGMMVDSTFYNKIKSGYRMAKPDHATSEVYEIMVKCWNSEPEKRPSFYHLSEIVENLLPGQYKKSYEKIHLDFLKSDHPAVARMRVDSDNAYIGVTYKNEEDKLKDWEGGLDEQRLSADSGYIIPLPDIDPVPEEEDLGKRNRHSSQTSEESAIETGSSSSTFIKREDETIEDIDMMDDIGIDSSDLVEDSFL

Row | SMILES | IC50 [nM] | inhibition at 0.1 µM [1] [%] | inhibition at 0.1 µM [2] [%]
1 | COc1cc2nccc(Oc3ccc(NC(=S)NC(=O)C(C)(C)Oc4ccc(Cl)cc4)cc3)c2cc1OC [Example 757, N-[2-(4-Chlorophenoxy)-2-methylpropanoyl]-N′-{4-[(6,7-dimethoxy-4-quinolyl)oxy]phenyl}thiourea] | > 100 | 45 | –
2 | COc1cc2nccc(Oc3ccc(NC(=S)NC(=O)C(C)(C)Oc4ccc(Cl)cc4)cc3Cl)c2cc1OC [Example 758, N-{3-Chloro-4-[(6,7-dimethoxy-4-quinolyl)oxy]phenyl}-N′-[2-(4-chlorophenoxy)-2-methylpropanoyl]thiourea] | > 100 | 18 | –
3 | COc1cc2nccc(Oc3ccc(NC(=S)NC(=O)C(OC)c4ccccc4)cc3Cl)c2cc1OC (stereo not shown) [Example 762, N-{3-Chloro-4-[(6,7-dimethoxy-4-quinolyl)oxy]phenyl}-N′-(2-methoxy-2-phenylacetyl)thiourea] | > 100 | – | –
4 | COc1cc2nccc(Oc3ccc(NC(=S)NC(=O)C4CCCO4)cc3Cl)c2cc1OC (stereo not shown) [Example 766, N-{3-Chloro-4-[(6,7-dimethoxy-4-quinolyl)oxy]phenyl}-N′-tetrahydro-2-furanylcarbonylthiourea] | > 100 | 45 | –
5 | COc1cc2ncnc(Oc3ccc(O)cc3)c2cc1OC [Example 773, 4-[(6,7-Dimethoxy-4-quinazolinyl)oxy]phenol] | > 100 | – | –
6 | COC(=O)COc1ccc(Oc2ncnc3cc(OC)c(OC)cc23)cc1 [Example 774, Methyl 2-{4-[(6,7-dimethoxy-4-quinazolinyl)oxy]phenoxy}acetate] | > 100 | 17 | –
7 | COc1cc2ncnc(Oc3ccc(OCC(=O)O)cc3)c2cc1OC [Example 775, 2-{4-[(6,7-Dimethoxy-4-quinazolinyl)oxy]phenoxy}acetic acid] | > 100 | 22 | –
8 | COc1cc2nccc(Oc3ccc(OCCCOc4c(C)cccc4C)cc3)c2cc1OC [Example 799, 4-{4-[3-(2,6-Dimethylphenoxy)propoxy]phenoxy}-6,7-dimethoxyquinoline] | 14 | – | –
9 | COc1cc2nccc(Oc3ccc(NC(=S)NC(=O)c4ccc(C)cc4C)cc3Cl)c2cc1OC [Example 1016, N-{3-Chloro-4-[(6,7-dimethoxy-4-quinolyl)oxy]phenyl}-N′-(2,4-dimethylbenzoyl)thiourea] | 48 | – | –
10 | COc1cc2nccc(Oc3ccc(NC(=S)NC(=O)c4cc(C)ccc4C)cc3Cl)c2cc1OC [Example 1017, N-{3-Chloro-4-[(6,7-dimethoxy-4-quinolyl)oxy]phenyl}-N′-(2,5-dimethylbenzoyl)thiourea] | 48 | – | –
11 | COc1cc2nccc(Oc3ccc(NC(=S)NC(=O)N(CCCl)CCCl)cc3Cl)c2cc1OC [Example 1049, N-{3-Chloro-4-[(6,7-dimethoxy-4-quinolyl)oxy]phenyl}-[{[di(2-chloroethyl)amino]carbonyl}amino]methanethioamide] | 44 | – | –
12 | COc1cc2nccc(Oc3ccc(NC(=S)NC(=O)c4ccc(C5CCCCC5)cc4)cc3)c2cc1OC [Example 1124, N-(4-Cyclohexylbenzoyl)-N′-{4-[(6,7-dimethoxy-4-quinolyl)oxy]phenyl}thiourea] | > 100 | – | 22
13 | COc1cc2nccc(Oc3ccc(NC(=S)NC(=O)c4ccc(C5CCCCC5)cc4)cc3Cl)c2cc1OC [Example 1127, N-{3-Chloro-4-[(6,7-dimethoxy-4-quinolyl)oxy]phenyl}-N′-(4-cyclohexylbenzoyl)thiourea] | > 100 | – | 8
14 | COc1cc2nccc(Oc3ccc(NC(=S)NC(=O)c4cc(C)cc(C)c4)cc3)c2cc1OC [Example 1129, N-{4-[(6,7-Dimethoxy-4-quinolyl)oxy]phenyl}-N′-(3 5-dimethylbenzoyl)thiourea] | > 100 | – | 48
15 | CCN(C(=S)NC(=O)CCc1ccccc1OC)c1ccc(Oc2ccnc3cc(OC)c(OC)cc23)cc1 [Example 1142, N-{4-[(6,7-Dimethoxy-4-quinolyl)oxy]phenyl}-N-ethyl-N′-[3-(2-methoxyphenyl)propanoyl]thiourea] | 80 | – | –
16 | CCN(C(=S)NC(=O)C1CC1c1ccccc1)c1ccc(Oc2ccnc3cc(OC)c(OC)cc23)cc1 (stereo not shown) [Example 1143, N-{4-[(6,7-Dimethoxy-4-quinolyl)oxy]phenyl}-N-ethyl-N′-[(2-phenylcyclopropyl)carbonyl]thiourea] | > 100 | – | 32
17 | COc1cc2nccc(Oc3ccc(NC(=S)NC(=O)c4cccnc4)cc3)c2cc1OC [Example 1152, N-{4-[(6,7-Dimethoxy-4-quinolyl)oxy]phenyl}-N′-(3-pyridylcarbonyl)thiourea] | < 10 | – | –
18 | COc1cc2ncnc(Oc3ccc(NC(=S)NC(=O)c4ccccc4C(F)(F)F)cc3)c2cc1OC [Example 1157, N-{4-[(6,7-Dimethoxy-4-quinazolinyl)oxy]phenyl}-N′-[2-(trifluoromethyl)benzoyl]thiourea] | < 10 | – | –
19 | COc1cc2ncnc(Oc3ccc(NC(=S)NC(=O)c4cc(Cl)cc(Cl)c4)cc3)c2cc1OC [Example 1158, N-(3,5-Dichlorobenzoyl)-N′-{4-[(6,7-dimethoxy-4-quinazolinyl)oxy]phenyl}thiourea] | 46 | – | –
20 | COc1cc2nccc(Oc3ccc(NC(=S)NC(=O)c4cc(Cl)cc(Cl)c4)c(Cl)c3)c2cc1OC [Example 1159, N-{2-Chloro-4-[(6,7-dimethoxy-4-quinolyl)oxy]phenyl}-N′-(3,5-dichlorobenzoyl)thiourea] | > 100 | – | –
21 | COc1cc2nccc(Oc3ccc(NC(=S)NC(=O)c4ccccc4F)cc3F)c2cc1OC [Example 1160, N-{4-[(6,7-Dimethoxy-4-quinolyl)oxy]-3-fluorophenyl}-N′-(2-fluorobenzoyl)thiourea] | < 10 | – | –
22 | COc1cc2ncnc(Oc3ccc(NC(=S)NC(=O)c4ccccc4F)cc3)c2cc1OC [Example 1161, N-{4-[(6,7-Dimethoxy-4-quinazolinyl)oxy]phenyl}-N′-(2-fluorobenzoyl)thiourea] | < 10 | – | –
23 | COc1cc2ncnc(Oc3ccc(NC(=S)NC(=O)c4c(Cl)cccc4Cl)cc3)c2cc1OC [Example 1162, N-(2,6-Dichlorobenzoyl)-N′-{4-[(6,7-dimethoxy-4-quinazolinyl)oxy]phenyl}thiourea] | 13 | – | –
24 | COc1cc2nccc(Oc3ccc(NC(=S)NC(=O)c4cccc(F)c4)c(Cl)c3)c2cc1OC [Example 1163, N-{2-Chloro-4-[(6,7-dimethoxy-4-quinolyl)oxy]phenyl}-N′-(3-fluorobenzoyl)thiourea] | > 100 | – | –
25 | COc1cc2ncnc(Oc3ccc(NC(=S)NC(=O)c4cccc(F)c4)cc3)c2cc1OC [Example 1164, N-{4-[(6,7-Dimethoxy-4-quinazolinyl)oxy]phenyl}-N′-(3-fluorobenzoyl)thiourea] | < 10 | – | –

Second part, the molecule after the results:

Row | IC50 [nM] | inhibition at 0.1 µM [1] [%] | inhibition at 0.1 µM [2] [%] | SMILES
26 | > 100 | – | – | COc1cc2nccc(Oc3ccc(NC(=S)NC(=O)c4cccc(Br)c4)c(Cl)c3)c2cc1OC [Example 1165, N-(3-Bromobenzoyl)-N′-{2-chloro-4-[(6,7-dimethoxy-4-quinolyl)oxy]phenyl}thiourea]
27 | < 10 | – | – | COc1cc2nccc(Oc3ccc(NC(=S)NC(=O)c4ccc(Br)cc4)cc3)c2cc1OC [Example 1166, N-(4-Bromobenzoyl)-N′-{4-[(6,7-dimethoxy-4-quinolyl)oxy]phenyl}thiourea]
28 | > 100 | – | – | COc1cc2nccc(Oc3ccc(NC(=S)NC(=O)c4ccc(Br)cc4)c(Cl)c3)c2cc1OC [Example 1167, N-(4-Bromobenzoyl)-N′-{2-chloro-4-[(6,7-dimethoxy-4-quinolyl)oxy]phenyl}thiourea]
29 | < 10 | – | – | COc1cc2ncnc(Oc3ccc(NC(=S)NC(=O)c4ccc(Br)cc4)cc3)c2cc1OC [Example 1168, N-(4-Bromobenzoyl)-N′-{4-[(6,7-dimethoxy-4-quinazolinyl)oxy]phenyl}thiourea]
30 | 37 | – | – | COc1cc2nccc(Oc3ccc(NC(=S)NC(=O)Cc4ccc(CBr)cc4)cc3)c2cc1OC [Example 1169, N-{2-[4-(Bromomethyl)phenyl]acetyl}-N′-{4-[(6,7-dimethoxy-4-quinolyl)oxy]phenyl}thiourea]
31 | < 10 | – | – | COc1cc2ncnc(Oc3ccc(NC(=S)NC(=O)CCCCCl)cc3)c2cc1OC [Example 1170, N-(5-Chloropentanoyl)-N′-{4-[(6,7-dimethoxy-4-quinazolinyl)oxy]phenyl}thiourea]
32 | 13 | – | – | COc1cc2nccc(Oc3ccc(NC(=S)NC(=O)Cc4cccs4)cc3)c2cc1OC [Example 1171, N-{4-[(6,7-Dimethoxy-4-quinolyl)oxy]phenyl}-N′-[2-(2-thienyl)acetyl]thiourea]
33 | 34 | – | – | COc1cc2ncnc(Oc3ccc(NC(=S)NC(=O)Cc4cccs4)cc3)c2cc1OC [Example 1172, N-{4-[(6,7-Dimethoxy-4-quinazolinyl)oxy]phenyl}-N′-[2-(2-thienyl)acetyl]thiourea]
34 | > 100 | – | – | COc1ccc(C(=O)NC(=S)Nc2ccc(Oc3ccnc4cc(OC)c(OC)cc34)cc2Cl)cc1 [Example 1173, N-{2-Chloro-4-[(6,7-dimethoxy-4-quinolyl)oxy]phenyl}-N′-(4-methoxybenzoyl)thiourea]
35 | > 100 | – | – | COc1cc2nccc(Oc3ccc(NC(=S)NC(=O)c4ccc(Cl)cc4)c(Cl)c3)c2cc1OC [Example 1174, N-(4-Chlorobenzoyl)-N′-{2-chloro-4-[(6,7-dimethoxy-4-quinolyl)oxy]phenyl}thiourea]
36 | 37 | – | – | COc1ccc(C(=O)NC(=S)Nc2ccc(Oc3ncnc4cc(OC)c(OC)cc34)cc2)c(OC)c1 [Example 1175, N-(2,4-Dimethoxybenzoyl)-N′-{4-[(6,7-dimethoxy-4-quinazolinyl)oxy]phenyl}thiourea]
37 | > 100 | – | – | COc1ccc(C(=O)NC(=S)Nc2ccc(Oc3ccnc4cc(OC)c(OC)cc34)cc2Cl)c(OC)c1 [Example 1176, N-{2-Chloro-4-[(6,7-dimethoxy-4-quinolyl)oxy]phenyl}-N′-(2,4-dimethoxybenzoyl)thiourea]
